# Laboratory results as given in patent publication US9259412B2, “Composition of the treatment of vascular diseases or KCa3.1 channel-mediated diseases comprising modafinil or derivatives thereof” (EWHA UNIVERSITY—INDUSTRY COLLABORATION FOUNDATION, priority 2011, dated 2016).
# Read-outs that look alike come from different tables or passages of the source.
# Assays:
# NIH-3T3 fibroblasts = test: Measurement of intracellular cAMP in NIH-3T3 fibroblasts; assay type: cell-based; conditions: for intracellular cAMP concentration: NIH-3T3 cells
# Method: Meanwhile, NIH-3T3 fibroblasts were used to verify the effect on KCa3.1 mediated diseases. NIH-3T3 fibroblasts (CRL-2795; American Type Culture Collection, VA, USA) were maintained in the following manner. Cells were cultivated as a monolayer in Dulbecco's Modified Eagle Medium (DMEM, Hyclone, Logan, Utah, USA) added with 10% fetal bovine serum (FBS), 100 units/ml penicillin, and 100 μg/ml streptomycin. All cells were maintained at 37° C. in humidified condition under 5% CO2. Media were changed twice weekly, and cultures were passaged at a dilution of 1:5 weekly. The medium was then removed and replaced with fresh medium, and the cells were maintained for the time periods indicated.
# NIH-3T3 fibroblasts were incubated with modafinil for 3 minutes within incomplete media. The concentration of cAMP (adenosine 3′,5′-cyclic monophosphate) from lysate was determined in each sample using a Parameter cAMP assay kit (R&D systems) according to the manufacturer's instructions.
# [1] = system: rat pulmonary arterial rings; test: Contraction measurement on isolated rat pulmonary arterial rings; conditions: for effect on vascular smooth muscle contraction: norepinephrine (0.1 μM)-induced contraction of rat pulmonary artery; for IC50: Rattus norvegicus
# Method: (§1) Experimental animals were used to examine the effect of modafinil on relaxation of contracted blood vessels. Five to six-month-old mice or rats were anaesthetized by an intraperitoneal injection of pentobarbital sodium (50 mg/kg, weight). The mouse thoracic aorta and rat pulmonary artery were dissected out and cut into rings of about 3 mm. Mechanical responses were recorded from the ring segments using a home-made myograph. Each ring was threaded with two strands of tungsten wire (120 μm in diameter). One wire was anchored in the organ bath chamber (1 ml) and the other was connected to a mechano-transducer (Grass, FT-03) mounted on a three dimensional manipulator. The muscle chamber was perfused at a flow rate of 2.5 ml/minute with oxygenated (95% O2/5% CO2) Krebs/Ringer bicarbonate solution with a peristaltic pump. The composition (unit: mM) of the Krebs solution was as follows: NaCl 118.3, KCl 4.7, MgCl2 1.2, KH2PO4 1.22, CaCl2 2.5, NaHCO3 25.0, glucose 11.1, pH 7.4. Endothelial cells were removed by gentle rubbing with a cotton ball and NO production in endothelial cells was inhibited by pretreating with NG-nitro-1-arginine methyl ester (l-NAME). Rings were pre-contracted with 0.1 μM norepinephrine or 30 mM K+.
# Since increase in intracellular cAMP in vascular smooth muscle cells activates PKA and phosphorylates myosin light chain active enzyme to relax vascular smooth muscles, the present inventors examined whether modafinil relaxes vascular smooth muscles. Mouse aortic rings or rat pulmonary arterial rings were contracted by norepinephrine (0.1 μM). When the contraction reached a steady-state, modafinil was applied. With the application, the contracted mouse aortic ring (FIGS. 3A and 3B) or rat pulmonary arterial ring (FIGS. 3C and 3D) was relaxed in a concentration-dependent manner. […] When rat pulmonary artery was contracted by K+ (30 mM) of a high concentration, modafinil relaxed the contracted artery in a concentration-dependent manner (FIG. 3E). When the concentration-dependent reaction of rat pulmonary artery was fitted to Hill's equation, the IC50 of modafinil was determined to be 10.5±0.4 nM (FIG. 3F).
# KCa3.1 channel [2] = target: T1, KCa3.1 channel (Mus musculus, UniProt O89109); test: Whole-cell patch-clamp of KCa3.1 currents in NIH-3T3 fibroblasts; assay type: cell-based
# T1 construct: cells which were not exposed to modafinil or forskolin were immunoblotted by anti-KCa3.1 antibody to confirm the presence of KCa3.1 channels; endogenous in cells; host or cells: NIH-3T3 fibroblasts
# T1 sequence (O89109 whole entry): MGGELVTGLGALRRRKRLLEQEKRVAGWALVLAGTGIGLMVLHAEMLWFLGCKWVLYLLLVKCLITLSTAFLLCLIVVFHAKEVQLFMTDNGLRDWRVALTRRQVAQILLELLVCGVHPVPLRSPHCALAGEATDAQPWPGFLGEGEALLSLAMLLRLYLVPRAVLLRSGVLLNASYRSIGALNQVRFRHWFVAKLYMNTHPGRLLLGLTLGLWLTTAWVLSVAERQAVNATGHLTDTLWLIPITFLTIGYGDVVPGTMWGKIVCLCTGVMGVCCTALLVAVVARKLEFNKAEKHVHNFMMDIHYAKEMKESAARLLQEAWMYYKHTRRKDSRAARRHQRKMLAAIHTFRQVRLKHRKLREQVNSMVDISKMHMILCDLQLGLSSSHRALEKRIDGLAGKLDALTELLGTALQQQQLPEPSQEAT
# Method: (§2) Electrophysiological analysis was performed according to the methods reported by Nilius and the like [Nilius et al., 1993, Pflugers Arch., 424(3-4): 285-293]. The patch-clamp technique was used in the whole-cell and excised patch configurations at room temperature. Whole-cell currents were measured using ruptured patches. Currents were monitored using an appropriate amplifier (EPC-10, HEKA, Lambrecht, Germany). In the whole cell experiment, we applied a voltage ramp from −100 mV to +100 mV with a 10 sec interval (650 ms duration) or voltage steps from a holding potential of −60 mV to potentials ranging from −100 mV to +100 mV in 20 mV increments (1 sec duration) with a 5 sec interval. Currents were recorded at a sampling rate of 1-4 kHz. Inside-out voltage clamps were performed using glass electrodes of tip resistance of 8-10 MΩ. Data were filtered at 1 KHz and stored in a computer for analysis using standard software (Axoscope 9.0, Axon Instruments, Foster City, Calif., USA). For some experiments, channel activity was expressed as the product of the number of channels times open probability (NPo), where NPo=Σ[(open time×number of open channels)/Total time of record].
# (§3) The standard external solution contains the following substance within NaOH solution of pH 7.4; 150 mM NaCl, 6 mM KCl, 1.5 mM CaCl2, 1 mM MgCl2, 10 mM HEPES, and 10 mM glucoses. The osmolarity of this solution, as determined by an osmometer (Fiske, Norwood, Mass., USA), was 320±5 mOsm. In the inside-out mode, the bath solution contains 150 mM KCl, 0.5 mM MgCl2, 10 mM HEPES within KOH solution of pH 7.2, and the pipette solution contains 150 mM NaCl, 6 mM KCl, 1 mM MgCl2, 10 mM HEPES, 10 mM glucoses, 5 mM EGTA within NaOH solution of pH 7.4. Free Ca2+ concentrations in the pipette or bath solutions were adjusted to 1 μM by adding appropriate amounts of Ca2+ (calculated using CaBuf software; G. Droogmans, Leuven, ftp://ftp.cc.kuleuven.ac.be/pub/droogmans/cabuf.zip) in the presence of 5 mM EGTA.
# KCa3.1 currents were activated by adding 1-ethyl-2-benzimidazolinone (1-EBIO, 100 μM) to the external solution and loading 1 μM Ca2+ via patch pipette in whole-cell clamped NIH-3T3 fibroblasts.
# KCa3.1 channel [3] = test: Western blotting of KCa3.1 channel phosphorylation in NIH-3T3 cells; assay type: cell-based
# Method: After the treatment, cells were washed once in ice-cold phosphate buffered saline (PBS) and lysed in protein extraction buffer containing protease inhibitor cocktail. Protein concentration in the supernatant was determined by Bradford protein assay. For Western blot analysis, 30 μg of protein was subjected to SDS-PAGE, and proteins were then transferred to a nitrocellulose membrane. Membranes were blocked for 1 hour with TBST (10 mM Tris-HCl, 150 mM NaCl, and 1% (v/v) Tween-20, pH 7.6) containing 5% bovine serum albumin (BSA) at room temperature. The blots were incubated for 3 hours with rabbit anti-P-PKA substrate antibody followed by incubation with horseradish peroxidase-conjugated secondary antibodies for 1 hour. Bands were visualized by chemiluminescence. Data collection and processing were performed using a luminescent image analyzer LAS-3000 and IMAGE GAUSE software (Fuji Film, Japan).
# KCa3.1 channel [4] = target: T1, KCa3.1 channel; test: Inside-out patch single channel recording of KCa3.1 channels in NIH-3T3 cells; assay type: cell-based
# Method: as §2, §3
# In inside-out patches, KCa3.1 channels were activated by clamping Ca2+ concentration of the bath solution to 1 μM and applying 1-EBIO. The holding potential was then changed from −70 to 50 mV (FIG. 7). The single channel currents were inhibited by TRAM-34. […] The present inventors then applied modafinil (30 or 100 nM) to the bath solution. […] The open probability was also not changed by modafinil (FIGS. 7A and 7B). A linear fit of the data between 50 to −70 mV yielded a slope conductance of 38.1 pS in the control group and 39.4 pS in the presence group of modafinil (FIG. 7C).
# [5] = system: mouse aortic smooth muscle cells; test: Measurement of intracellular cAMP in cultured mouse aortic smooth muscle cells; assay type: cell-based
# Method: Single smooth muscle cells (SMCs) were used to examine the effect of modafinil on vascular diseases. Single smooth muscle cells were separated from an aorta of the mouse. Three to four-month-old mice of either gender were anaesthetized with pentobarbital sodium (50 mg/kg weight) and sacrificed by cervical dislocation. Thoracic aortas were dissected out in Ca2+-free external solution and dissociated by incubation in papain (1 mg/ml) for 5 min followed by incubation in collagenase (1.5 mg/ml), bovine serum albumin (BSA; 2 mg/ml) and dithiothreitol (1 mg/ml) for 10 to 20 min in Ca2+-free external solution at 37° C. Segments were then transferred to fresh Ca2+-free external solution, and single mouse SMCs were dispersed with gentle agitation using a glass pipette. Mouse aortic SMCs were cultivated in Dulbecco's Modified Eagle Medium (DMEM) containing 10% fetal bovine serum (FBS) plus 1% minimum essential amino acids (Life Technologies). Cell culture was maintained at 37° C. in fully humidified air with 5% CO2.
# Cultured mouse aortic SMCs were incubated with modafinil for 3 minutes within incomplete media. The concentration of cAMP (adenosine 3″,5″-cyclic monophosphate) from lysate was determined in each sample using a Parameter cAMP assay kit (R&D Systems) according to the manufacturer's instructions.
# mouse aortic rings = test: Contraction measurement on isolated mouse aortic rings; conditions: mouse aortic rings contracted by norepinephrine (0.1 μM), Hill's equation; read-out: IC50 of relaxation of contracted rings
# Method: as §1, with “K+. […]” for “K+.”
# [6] = currents activated by 1 μM Ca2+ and 1-EBIO 100 μM
# [7] = modafinil 30 or 100 nM in bath solution
smiles,measurement,setting,value
"O=C(C[S+]([O-])C(c1ccccc1)c1ccccc1)NCC1CCCO1 (centres unmarked) [M020, 2-(benzhydrylsulfinyl)-N-((tetrahydrofuran-2-yl)methyl) acetamide]",intracellular cAMP concentration,NIH-3T3 fibroblasts,increased the intracellular cAMP concentration in a concentration-dependent manner
same,effect on vascular smooth muscle contraction,[1],relaxed
same,effect on KCa3.1 currents,KCa3.1 channel [2]; [6],inhibited
"O=C(CSC(c1ccccc1)c1ccccc1)Nc1ccccc1 [M008, 2-(benzhydrylthio)-N-phenylacetamide]",intracellular cAMP concentration,NIH-3T3 fibroblasts,increased the intracellular cAMP concentration in a concentration-dependent manner
same,effect on vascular smooth muscle contraction,[1],relaxed
same,effect on KCa3.1 currents,KCa3.1 channel [2]; [6],inhibited
O=S(=O)(NCCNC/C=C/c1ccc(Br)cc1)c1cccc2cnccc12 [H89],effect on channel phosphorylation in the resting state and by forskolin,KCa3.1 channel [3]; NIH-3T3 cells pretreated with PKA inhibitor for 30 min,completely abolished
Clc1ccccc1C(c1ccccc1)(c1ccccc1)n1cccn1 [TRAM-34],effect on KCa3.1 currents,KCa3.1 channel [2]; [6],inhibited
same,effect on single channel currents,KCa3.1 channel [4]; activated by 1 μM Ca2+ and 1-EBIO,inhibited
CC#CCC(C)[C@H](O)/C=C/[C@@H]1[C@H]2C/C(=C/CCCC(=O)O)C[C@H]2C[C@H]1O (some centres unmarked) [iloprost],intracellular cAMP concentration,NIH-3T3 fibroblasts,increased cAMP concentration
same,IC50,[1]; read-out: IC50 of inhibition of rat pulmonary arterial contraction,39.4 ± 5.1 nM
"O=C(CSC(c1ccccc1)c1ccccc1)NCC1CCCO1 (centres unmarked) [M006, 2-(benzhydrylthio)-N-((tetrahydrofuran-2-yl)methyl)acetamide]",intracellular cAMP concentration,NIH-3T3 fibroblasts,increased the intracellular cAMP concentration in a concentration-dependent manner
same,effect on vascular smooth muscle contraction,[1],relaxed
same,effect on KCa3.1 currents,KCa3.1 channel [2]; [6],inhibited
"CNC(=O)C[S+]([O-])C(c1ccccc1)c1ccccc1 (centres unmarked) [M015, 2-(benzhydrylsulfinyl)-N-methylacetamide]",intracellular cAMP concentration,NIH-3T3 fibroblasts,increased the intracellular cAMP concentration in a concentration-dependent manner
same,effect on vascular smooth muscle contraction,[1],relaxed
same,effect on KCa3.1 currents,KCa3.1 channel [2]; [6],inhibited
"NC(=O)C[S+]([O-])C(c1ccccc1)c1ccccc1 (centres unmarked) [modafinil, 2-(benzhydrylsulfinyl) acetamide]",intracellular cAMP concentration,[5]; cultured mouse aortic SMCs exposed for 3 minutes,increased in a concentration-dependent manner
same,concentration from which intracellular cAMP concentration significantly increased,"[5]; primary cultured mouse aortic smooth muscle cells, 3 min, p<0.01",10 nM
same,concentration of cAMP compared to treating the cell with 10 μM of forskolin,"NIH-3T3 fibroblasts; NIH-3T3 cell, 1 μM of modafinil",2 times
same,intracellular cAMP concentration,NIH-3T3 fibroblasts,increased in a concentration-dependent manner
same,IC50,mouse aortic rings,11.9 ± 0.3 nM
same,IC50,[1]; read-out: IC50 of relaxation of contracted artery,10.5 ± 0.4 nM
same,IC50,[1]; read-out: IC50 of relaxation of contracted rings,10.1 ± 0.1 nM
same,IC50,KCa3.1 channel [2],6.8 ± 0.7 nM
same,effect on KCa3.1 currents in cells pretreated by H89,KCa3.1 channel [2]; H89 (10 μM) pretreatment,not inhibited
same,effect on KCa3.1 currents with PKI14-22 in the pipette solution,KCa3.1 channel [2]; PKI14-22 (10 μM) in pipette solution,not affected
same,concentration for maximal inhibition of KCa3.1 currents,KCa3.1 channel [2]; [6],100.0 ± 5.7 nM
same,KCa3.1 channel phosphorylation,"KCa3.1 channel [3]; NIH-3T3 cells, treatment for 5 min",increased KCa3.1 phosphorylation in a concentration-dependent manner
same,slope conductance of single KCa3.1 channel,"KCa3.1 channel [4]; linear fit between 50 to -70 mV, in the presence of modafinil",39.4 pS
same,open probability of KCa3.1 channels,KCa3.1 channel [4]; [7],not changed
same,single channel activity of KCa3.1 channels,KCa3.1 channel [4]; [7],did not change
